The values that follow come from patent US20160361244A1, “USE OF THE INHIBITOR OF STEROID SULFATASES STX64 FOR TREATING AGING” (U[…] DE OLAVIDE, priority 2013, published 2016).

In the assay the test system is wild type C. elegans. Nature of the assay: Longevity curves of C. elegans in the presence of the steroid sulfatase inhibitor. The conditions noted are these: for longevity (longevity curve) versus control population exposed to the inhibitor solvent (DMSO): 25° C., p=0.0139, n>100, FIG. 3. It is filed as in vivo. Here is the method:
In order to generate the longevity curves, the strains under study and their pertinent controls were first subjected to an egg preparation in order to prevent contaminations and synchronise them at the embryonic stage, and, subsequently, they were incubated at 16° C. In order to prevent interferences caused by physiological stresses resulting from this process, they were allowed to grow to the following generation. 5 or 6 L4 per plate were then transferred to 4 plates, and were once again incubated at 16° C. to L4, the stage selected to start the longevity curves.
On day zero, 120 L4 of each strain were transferred to new plates, 20 worms per plate, and incubated at the temperature at which the assay was subsequently performed, i.e. 25° C.
During the first week of the curves, the nematodes were transferred to new plates every 2 days, in order to prevent confusions with potential descendants. Subsequently, they were checked every 2 or 3 days, and those specimens that were lost or dead for non-physiological reasons were withdrawn from the study. The individuals were transferred to new plates every 5 days in order to maintain optimal growth conditions in the plates. The specimens were considered to be dead when they ceased to respond upon being softly touched with the platinum wire.
The longevity was studied in the presence of the steroid sulfatase inhibitor STX64 (SIGMA, S1950-5MG) diluted in DMSO at 5 μg/μl. […] The preparation and synchronisation of the nematodes until day=0 was the same as in the preceding case, the only difference being that the nematodes were transferred to fresh plates every two or three days until the curve was completed.
We used the GraphPad Prism 5 programme (Version 5.0a, for Mac OS X. 1992-2008 GraphPad Software, Inc.) in the survival curve mode to represent the longevity curves, and the Kaplan-Meier method was used to perform the statistical analysis thereof. […]

With `NS(=O)(=O)Oc1ccc2c3c(c(=O)oc2c1)CCCCC3` [STX64, Irosustat], the “effect of treatment on ageing” value (C. elegans, FIG. 3) was “delayed ageing”. Also, the “longevity (longevity curve) versus control population exposed to the inhibitor solvent (DMSO)” value by setting is: (wild type population supplemented with 0.5 μg/ml) “lives significantly longer”; (wild type population supplemented with 1 μg/ml) “lives significantly longer”.
